Among the data in patent publication US11865108B2, “Nitrogen containing bicyclic compounds” (Wockhardt Limited, priority 2019, dated 2024) are MIC values, retold here.

For one test, the system named is KP ATCC 700603. The test is described as follows: Agar dilution MIC, KP ATCC 700603. The format is cell-based, K. pneumoniae. To be noted: Klebsiella pneumoniae, ATCC700603. As for the experimental part:
(§1) The biological activity of representative compounds according to the invention against various bacterial strains was investigated. In a typical study, overnight grown bacterial cultures were diluted appropriately and inoculated on the agar media containing doubling dilutions of the test compounds. Observations for growth or no growth was performed after 16-20 hours of incubation at 35±2° C. in the ambient air. The overall procedure was performed as per Clinical and Laboratory Standards Institute (CLSI) recommendations, (Clinical and Laboratory Standards Institute (CLSI), Performance Standards for Antimicrobial Susceptibility Testing, 20th Informational Supplement, M07-A9, Volume 32, No. 2, 2012). Molten Mueller Hinton Agar (MHA) (BD, USA) containing serial dilutions of each antibacterial agent were poured on to the plates and allowed to solidify. Appropriate suspensions from the freshly grown cultures were prepared in normal saline so that about 10^4 CFU/spot of the organism was delivered on to the drug containing agar plates using automated multipoint inoculator (Mast, UK). The plates were incubated in Biochemical oxygen demand (BOD) incubator at 37° C. for 18 hours and then examined for growth. […] The Table 2 depicts the antibacterial activity profile of compounds according to present invention against various multidrug resistant bacterial strains.

The subject of another test is E. Coli 13351. The test is described as follows: Agar dilution MIC, E. Coli 13351. The test is classed as cell-based. Particulars: Escherichia coli. As for the experimental part:
as §1

Another test concerns E. Coli 13352. The test can be described thus: Agar dilution MIC, E. Coli 13352. The format is cell-based. To be noted: Escherichia coli. As for the experimental part: as §1
Another test deals with E. Coli 13353. The test is described as follows: Agar dilution MIC, E. Coli 13353. To be noted: Escherichia coli. The test is classed as cell-based. As for the experimental part: as §1
On the technique in general: In agar dilution the substance is mixed into plates at graded concentrations.

The test system of a further test is E. Coli M 36. The test can be described thus: Agar dilution MIC, E. Coli M 36. The format is cell-based. To be noted: Escherichia coli. The protocol: as §1
The next test deals with E. Coli 7 MP. The test is described as follows: Agar dilution MIC, E. Coli 7 MP. The test is classed as cell-based. To be noted: Escherichia coli. The protocol:
as §1

Another test relates to E. Coli M 49. The test can be described thus: Agar dilution MIC, E. Coli M 49. The test is classed as cell-based. To be noted: Escherichia coli. As for the experimental part: as §1
The test system of a further test is E. Coli M 50. The test can be described thus: Agar dilution MIC, E. Coli M 50. Particulars: Escherichia coli. The test is classed as cell-based. As for the experimental part:
as §1

In the next test the test system is E. Coli M 138. The test can be described thus: Agar dilution MIC, E. Coli M 138. The format is cell-based. To be noted: Escherichia coli. As for the experimental part:
as §1

The test system of the next test is E. Coli S 18. The test can be described thus: Agar dilution MIC, E. Coli S 18. To be noted: Escherichia coli. The format is cell-based. As for the experimental part:
as §1

Another test relates to K. pneumoniae H 521. The test is described as follows: Agar dilution MIC, K. pneumoniae H 521. The test is classed as cell-based. Particulars: Klebsiella pneumoniae, H521. As for the experimental part: as §1
A further test concerns K. pneumoniae H 522. The test is described as follows: Agar dilution MIC, K. pneumoniae H 522. Particulars: Klebsiella pneumoniae, H522. The format is cell-based. As for the experimental part: as §1
Another test deals with K. pneumoniae H 523. The test can be described thus: Agar dilution MIC, K. pneumoniae H 523. Particulars: Klebsiella pneumoniae, H523. The format is cell-based. The protocol:
as §1

Another test concerns K. pneumoniae H 525. The test can be described thus: Agar dilution MIC, K. pneumoniae H 525. The test is classed as cell-based. Particulars: Klebsiella pneumoniae, H525. As for the experimental part: as §1

Structures are written as SMILES. In brackets after ≈: the same amount, converted by molar mass. A value given as a limit tells only on which side of the number the result lay.

Regarding `O=C(NOC[C@@H]1C[C@@H](CO)CN1)[C@@H]1CC[C@@H]2CN1C(=O)N2OS(=O)(=O)O` [Example 5], the MIC – broadly, the least concentration at which growth counts as inhibited – was > 32 µg/mL in the test on KP ATCC 700603; 1 µg/mL (≈ 2.54 µM) with E. Coli 13351; 2 µg/mL (≈ 5.07 µM) against E. Coli 13352; 1 µg/mL (≈ 2.54 µM) in the test with E. Coli 13353; 1 µg/mL (≈ 2.54 µM) against E. Coli M 36; 2 µg/mL (≈ 5.07 µM) against E. Coli 7 MP. Further, the minimum inhibitory concentration (MIC) in the test with E. Coli M 49 is 4 µg/mL (≈ 10.1 µM); in the test with E. Coli M 50, 1 µg/mL (≈ 2.54 µM); in the test with E. Coli M 138, 1 µg/mL (≈ 2.54 µM); with E. Coli S 18, 1 µg/mL (≈ 2.54 µM); against K. pneumoniae H 521 it was 1 µg/mL (≈ 2.54 µM); against K. pneumoniae H 522, 1 µg/mL (≈ 2.54 µM). For the same compound, the MIC in the test on K. pneumoniae H 523 and in the test with K. pneumoniae H 525 was 1 µg/mL (≈ 2.54 µM) each time.
Consider `O=C(NOC[C@@H]1C[C@H](CO)CN1)[C@@H]1CC[C@@H]2CN1C(=O)N2OS(=O)(=O)O` [Example 6], for which the MIC in the test with KP ATCC 700603 is > 32 µg/mL; with E. Coli 13351, 1 µg/mL (≈ 2.54 µM); with E. Coli 13352, 2 µg/mL (≈ 5.07 µM); with E. Coli 13353, 1 µg/mL (≈ 2.54 µM); in the test on E. Coli M 36, 1 µg/mL (≈ 2.54 µM); in the test with E. Coli 7 MP, 2 µg/mL (≈ 5.07 µM). The MIC came out at 4 µg/mL (≈ 10.1 µM) in the test with E. Coli M 49; 1 µg/mL (≈ 2.54 µM) with E. Coli M 50; 1 µg/mL (≈ 2.54 µM) in the test with E. Coli M 138; 1 µg/mL (≈ 2.54 µM) against E. Coli S 18; 2 µg/mL (≈ 5.07 µM) against K. pneumoniae H 521; 2 µg/mL (≈ 5.07 µM) with K. pneumoniae H 522. For the same compound, the minimum inhibitory concentration (MIC) against K. pneumoniae H 523 came out at 2 µg/mL (≈ 5.07 µM); in the test on K. pneumoniae H 525, 1 µg/mL (≈ 2.54 µM).
Regarding `O=C(NOC[C@H]1C[C@H](CO)CN1)[C@@H]1CC[C@@H]2CN1C(=O)N2OS(=O)(=O)O` [Example 7], the MIC is > 32 µg/mL against KP ATCC 700603; 1 µg/mL (≈ 2.54 µM) against E. Coli 13351; 2 µg/mL (≈ 5.07 µM) against E. Coli 13352; 1 µg/mL (≈ 2.54 µM) in the test on E. Coli 13353; 1 µg/mL (≈ 2.54 µM) in the test on E. Coli M 36; 2 µg/mL (≈ 5.07 µM) with E. Coli 7 MP. Also, the MIC in the test on E. Coli M 49 came out at 4 µg/mL (≈ 10.1 µM); against E. Coli M 50, 1 µg/mL (≈ 2.54 µM); against E. Coli M 138, 1 µg/mL (≈ 2.54 µM); against E. Coli S 18, 1 µg/mL (≈ 2.54 µM); against K. pneumoniae H 521, 2 µg/mL (≈ 5.07 µM); against K. pneumoniae H 522, 2 µg/mL (≈ 5.07 µM). Also, the minimal inhibitory concentration (MIC) in the test on K. pneumoniae H 523 and with K. pneumoniae H 525 was 1 µg/mL (≈ 2.54 µM) throughout.
Take `O=C(NOC[C@H]1C[C@@H](CO)CN1)[C@@H]1CC[C@@H]2CN1C(=O)N2OS(=O)(=O)O` [Example 8]: the MIC with KP ATCC 700603 is > 32 µg/mL; against E. Coli 13351 it was 2 µg/mL (≈ 5.07 µM); in the test with E. Coli 13352, 4 µg/mL (≈ 10.1 µM); against E. Coli 13353 it was 1 µg/mL (≈ 2.54 µM); against E. Coli M 36 it was 1 µg/mL (≈ 2.54 µM); in the test with E. Coli 7 MP, 4 µg/mL (≈ 10.1 µM). Besides, the minimum inhibitory concentration (MIC) in the test on E. Coli M 49 amounted to 4 µg/mL (≈ 10.1 µM); with E. Coli M 50, 1 µg/mL (≈ 2.54 µM); in the test with E. Coli M 138, 1 µg/mL (≈ 2.54 µM); against E. Coli S 18, 2 µg/mL (≈ 5.07 µM); with K. pneumoniae H 521, 4 µg/mL (≈ 10.1 µM); against K. pneumoniae H 522, 8 µg/mL (≈ 20.3 µM). The minimal inhibitory concentration (MIC) in the test on K. pneumoniae H 523 and with K. pneumoniae H 525 was 1 µg/mL (≈ 2.54 µM) throughout.
Take `NC[C@H]1CN[C@H](CONC(=O)[C@@H]2CC[C@@H]3CN2C(=O)N3OS(=O)(=O)O)C1` [Example 9]: the MIC against KP ATCC 700603 was > 32 µg/mL; against E. Coli 13351, 4 µg/mL (≈ 10.2 µM); in the test on E. Coli 13352 it was 4 µg/mL (≈ 10.2 µM); with E. Coli 13353, 2 µg/mL (≈ 5.08 µM); against E. Coli M 36, 2 µg/mL (≈ 5.08 µM); with E. Coli 7 MP, 8 µg/mL (≈ 20.3 µM). In addition, the minimum inhibitory concentration (MIC) against E. Coli M 49 turned out to be 4 µg/mL (≈ 10.2 µM); with E. Coli M 50, 2 µg/mL (≈ 5.08 µM); with E. Coli M 138, 4 µg/mL (≈ 10.2 µM); against E. Coli S 18, 2 µg/mL (≈ 5.08 µM); with K. pneumoniae H 521, 4 µg/mL (≈ 10.2 µM); in the test on K. pneumoniae H 522, 4 µg/mL (≈ 10.2 µM). Besides, the minimum inhibitory concentration (MIC) in the test on K. pneumoniae H 523 and in the test with K. pneumoniae H 525 was 2 µg/mL (≈ 5.08 µM) throughout.
For the compound `O=C(NOC[C@@H]1C[C@@H](CF)CN1)[C@@H]1CC[C@@H]2CN1C(=O)N2OS(=O)(=O)O` [Example 10], the MIC is > 32 µg/mL against KP ATCC 700603; 1 µg/mL (≈ 2.52 µM) against E. Coli 13351; 2 µg/mL (≈ 5.05 µM) in the test with E. Coli 13352; 1 µg/mL (≈ 2.52 µM) in the test on E. Coli 13353; 1 µg/mL (≈ 2.52 µM) against E. Coli M 36; 2 µg/mL (≈ 5.05 µM) against E. Coli 7 MP. The MIC with E. Coli M 49 was determined as 4 µg/mL (≈ 10.1 µM); against E. Coli M 50 it was 1 µg/mL (≈ 2.52 µM); in the test with E. Coli M 138, 1 µg/mL (≈ 2.52 µM); in the test on E. Coli S 18, 1 µg/mL (≈ 2.52 µM); against K. pneumoniae H 521, 2 µg/mL (≈ 5.05 µM); with K. pneumoniae H 522 it was 2 µg/mL (≈ 5.05 µM). For the same compound, the MIC against K. pneumoniae H 523 and against K. pneumoniae H 525 was 2 µg/mL (≈ 5.05 µM) throughout.
